Values quoted from earlier work in patent US20220378705A1, “METHOD FOR PREPARING PHARMACEUTICAL COMPOSITIONS CONTAINING AMPHIPHILIC ACTIVE INGREDIENTS” (PHARMADEV SA, priority 2019, published 2022).

How the values were obtained:
[1] = octanol-water partition coefficient

O=C(c1ccccc1)c1ccc2n1CCC2C(=O)O (racemic) [KETOROLAC, 2-amino-2-(hydroxymethyl)propane-1,3-2-amino-2-(hydroxymethyl)-1,3-propanediol(±)-5-benzoyl-2,3-dihydro-1H-pyrrolizine-1-carboxylic acid diol(±)-5-benzoyl-2,3-dihydro-1H-pyrrolizine-1-carboxylic acid]
pKa: 3.84 | Log Po/w [1]: 2.3

CC(C(=O)O)c1ccc(-c2ccccc2)c(F)c1 (stereo not shown) [FLURBIPROFEN, 2-(3-fluoro-4-phenylphenyl)propanoic acid]
pKa: 4.17 | Log Po/w [1]: 4.16

Cc1cccc(Nc2ccccc2C(=O)O)c1C [MEFENAMIC ACID, 2-(2,3-dimethylanilino)benzoic acid]
Log Po/w [1]: 4.20

O=C(O)c1cccnc1Nc1cccc(C(F)(F)F)c1 [NIFLUMIC ACID]
pKa: 4.44 | Log Po/w [1]: 4.43
